Data published in patent US20260137703A1, “2-AMINO-PYRIDO[2,3-D]PYRIMIDIN-7(8H)-ONE AND 7-AMINO-1-PYRIMIDO[4,5-D]PYRIMIDIN-2(1 H)-ONE DERIVATIVES AS EGFR INHIBITORS FOR THE TREATMENT OF CANCER” (Cancer Research Technology Limited, priority 2022, published 2026).

These compounds were tested against CtermHisTag-mEGFR Wild type (Homo sapiens, UniProt P00533) (assay: biochemical).
CtermHisTag-mEGFR Wild type, sequence (P00533 whole entry): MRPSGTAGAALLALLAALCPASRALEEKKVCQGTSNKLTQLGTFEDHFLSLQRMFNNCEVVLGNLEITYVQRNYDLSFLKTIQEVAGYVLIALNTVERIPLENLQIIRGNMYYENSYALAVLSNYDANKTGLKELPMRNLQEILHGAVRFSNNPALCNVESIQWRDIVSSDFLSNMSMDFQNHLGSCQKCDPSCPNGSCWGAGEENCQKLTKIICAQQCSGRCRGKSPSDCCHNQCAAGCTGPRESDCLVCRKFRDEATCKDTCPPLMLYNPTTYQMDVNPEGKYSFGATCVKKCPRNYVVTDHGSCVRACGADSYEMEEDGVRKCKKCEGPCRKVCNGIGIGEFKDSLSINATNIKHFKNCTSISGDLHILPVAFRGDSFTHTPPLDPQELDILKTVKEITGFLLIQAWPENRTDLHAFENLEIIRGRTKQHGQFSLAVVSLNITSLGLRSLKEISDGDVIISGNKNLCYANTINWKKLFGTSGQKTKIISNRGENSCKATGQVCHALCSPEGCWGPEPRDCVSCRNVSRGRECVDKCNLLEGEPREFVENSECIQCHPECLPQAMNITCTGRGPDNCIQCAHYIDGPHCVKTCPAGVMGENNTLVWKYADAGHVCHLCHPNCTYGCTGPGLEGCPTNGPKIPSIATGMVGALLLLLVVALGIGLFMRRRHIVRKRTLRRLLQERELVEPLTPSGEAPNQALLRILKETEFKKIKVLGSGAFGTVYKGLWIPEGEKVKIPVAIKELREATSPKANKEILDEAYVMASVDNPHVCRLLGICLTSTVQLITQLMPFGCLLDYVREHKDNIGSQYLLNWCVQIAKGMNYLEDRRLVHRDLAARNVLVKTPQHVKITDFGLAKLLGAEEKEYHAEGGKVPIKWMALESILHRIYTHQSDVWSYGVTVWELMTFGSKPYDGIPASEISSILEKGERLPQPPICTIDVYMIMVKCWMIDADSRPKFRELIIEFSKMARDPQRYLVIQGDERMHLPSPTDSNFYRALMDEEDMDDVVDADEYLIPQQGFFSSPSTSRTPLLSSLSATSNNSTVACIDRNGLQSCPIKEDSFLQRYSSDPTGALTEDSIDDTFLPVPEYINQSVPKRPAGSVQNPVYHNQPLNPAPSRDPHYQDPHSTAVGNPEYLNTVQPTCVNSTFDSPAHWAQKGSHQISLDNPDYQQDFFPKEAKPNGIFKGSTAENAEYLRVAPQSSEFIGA

Row | SMILES | IC50 [µM]
1 | C=CC(=O)Nc1cc(=O)n(-c2ccccc2)c2nc(Nc3ccccc3OC)ncc12 [Example 2, N-(2-((2-Methoxyphenyl)amino)-7-oxo-8-phenyl-7,8-dihydropyrido[2,3-d]pyrimidin-5-yl)acrylamide] | > 10
2 | C#Cc1cc(=O)n(-c2ccccc2)c2nc(Nc3ccccc3)ncc12 [Example 5] | 1 to 10
3 | C#Cc1cc(=O)n(-c2ccccc2)c2nc(Nc3ccccc3CO)ncc12 [Example 41, 5-Ethynyl-2-{[2-(hydroxymethyl)phenyl]amino}-8-phenylpyrido[2,3-d]pyrimidin-7-one] | > 10
4 | C#Cc1cc(=O)n(C)c2nc(Nc3ccc(N(C)CCN(C)C)cc3OC)ncc12 [Example 42, 2-[(4-{[2-(Dimethylamino)ethyl](methyl)amino}-2-methoxyphenyl)amino]-5-ethynyl-8-methylpyrido[2,3-d]pyrimidin-7-one] | 1 to 10
5 | C#Cc1cc(=O)n(-c2cccc(NS(=O)(=O)C3CC3)c2)c2nc(Nc3ccccc3OC)ncc12 [Example 58, N-(3-(5-Ethynyl-2-((2-methoxyphenyl)amino)-7-oxopyrido[2,3-d]pyrimidin-8(7H)-yl)phenyl)cyclopropanesulfonamide] | > 10
6 | C#Cc1cc(=O)n(-c2ccc(OC)cc2OC)c2nc(Nc3ccccc3OC)ncc12 [Example 75, 8-(2,4-Dimethoxyphenyl)-5-ethynyl-2-[(2-methoxyphenyl)amino]pyrido[2,3-d]pyrimidin-7-one] | > 10
7 | C#Cc1cc(=O)n(C(C)C)c2nc(Nc3ccccc3OC)ncc12 [Example 83, 5-Ethynyl-8-isopropyl-2-[(2-methoxyphenyl)amino]pyrido[2,3-d]pyrimidin-7-one] | > 10
8 | C#Cc1cc(=O)n(-c2ccc(OC)cc2)c2nc(Nc3ccccc3OC)ncc12 [Example 84, 5-ethynyl-8-(4-methoxyphenyl)-2-[(2-methoxyphenyl)amino]pyrido[2,3-d]pyrimidin-7-one] | > 10
9 | C#Cc1cc(=O)n(-c2cccc(NC(=O)C=C)c2)c2nc(Nc3ccccc3OC)ncc12 [Example 85, N-(3-(5-Ethynyl-2-((2-methoxyphenyl)amino)-7-oxopyrido[2,3-d]pyrimidin-8(7H)-yl)phenyl)acrylamide] | 1 to 10
10 | C#Cc1c(-c2ccccc2Cl)c(=O)n(C)c2nc(Nc3ccc(N(C)CCN(C)C)cc3OC)ncc12 [Example 122, 6-(2-chlorophenyl)-2-[(4-[[2-(dimethylamino)ethyl](methyl)amino]-2-methoxyphenyl)amino]-5-ethynyl-8-methylpyrido[2,3-d]pyrimidin-7-one] | < 1
11 | C#Cc1c(-c2ccccc2Cl)c(=O)n(C)c2nc(Nc3ccccc3OC)ncc12 [Example 123, 6-(2-chlorophenyl)-5-ethynyl-2-[(2-methoxyphenyl)amino]-8-methylpyrido[2,3-d]pyrimidin-7-one] | > 10
12 | C#Cc1c(-c2ccccc2Cl)c(=O)n(C)c2nc(Nc3ccccc3)ncc12 [Example 124, 6-(2-chlorophenyl)-5-ethynyl-8-methyl-2-(phenylamino)pyrido[2,3-d]pyrimidin-7-one] | > 10
13 | C#Cc1c(-c2ccccc2Cl)c(=O)n(C)c2nc(NCCCCN3CCN(C)CC3)ncc12 [Example 130, 6-(2-chlorophenyl)-5-ethynyl-8-methyl-2-{[4-(4-methylpiperazin-1-yl)butyl]amino}pyrido[2,3-d]pyrimidin-7-one] | > 10
14 | C#Cc1c(C(=O)NC)c(=O)n(-c2ccccc2)c2nc(Nc3ccccc3OC)ncc12 [Example 141, 5-ethynyl-2-[(2-methoxyphenyl)amino]-N-methyl-7-oxo-8-phenylpyrido[2,3-d]pyrimidine-6-carboxamide] | > 10
15 | C#Cc1c(N)c(=O)n(-c2ccccc2)c2nc(Nc3ccccc3OC)ncc12 [Example 142, 6-amino-5-ethynyl-2-[(2-methoxyphenyl)amino]-8-phenylpyrido[2,3-d]pyrimidin-7-one] | > 10
16 | C#Cc1c(C#N)c(=O)n(-c2ccccc2)c2nc(Nc3ccccc3OC)ncc12 [Example 145, 5-ethynyl-2-[(2-methoxyphenyl)amino]-7-oxo-8-phenylpyrido[2,3-d]pyrimidine-6-carbonitrile] | > 10
17 | C=Cc1cc(=O)n(-c2ccccc2)c2nc(Nc3ccccc3OC)ncc12 [Example 152, 5-ethenyl-2-[(2-methoxyphenyl)amino]-8-phenylpyrido[2,3-d]pyrimidin-7-one] | > 10
18 | C=Cc1cc(=O)n(-c2ccccc2OC)c2nc(Nc3ccccc3OC)ncc12 [Example 153, 8-(2-Methoxyphenyl)-2-((2-methoxyphenyl)amino)-5-vinylpyrido[2,3-d]pyrimidin-7(8H)-one] | > 10
19 | C=Cc1c(C#N)c(=O)n(-c2ccccc2)c2nc(Nc3ccccc3OC)ncc12 [Example 159, 5-ethenyl-2-[(2-methoxyphenyl)amino]-7-oxo-8-phenylpyrido[2,3-d]pyrimidine-6-carbonitrile] | 1 to 10
20 | C=Cc1c(C#N)c(=O)n(-c2ccc(OC)cc2OC)c2nc(Nc3ccccc3OC)ncc12 [Example 160, 8-(2,4-dimethoxyphenyl)-2-((2-methoxyphenyl)amino)-7-oxo-5-vinyl-7,8-dihydropyrido[2,3-d]pyrimidine-6-carbonitrile] | 1 to 10
21 | C=Cc1c(-c2ccccc2Cl)c(=O)n(C)c2nc(Nc3ccccc3OC)ncc12 [Example 161, 6-(2-chlorophenyl)-5-ethenyl-2-[(2-methoxyphenyl)amino]-8-methylpyrido[2,3-d]pyrimidin-7-one] | > 10
22 | C=Cc1c(-c2ccccc2)c(=O)n(C)c2nc(Nc3ccccc3OC)ncc12 [Example 162, 5-ethenyl-2-[(2-methoxyphenyl)amino]-8-methyl-6-phenylpyrido[2,3-d]pyrimidin-7-one] | > 10
23 | C=Cc1c(-c2c(Cl)cccc2Cl)c(=O)n(C)c2nc(Nc3ccccc3OC)ncc12 [Example 163, 6-(2,6-dichlorophenyl)-5-ethenyl-2-[(2-methoxyphenyl)amino]-8-methylpyrido[2,3-]pyrimidin-7-one] | > 10

Results, then the compound that gave them:

Row | IC50 [µM] | SMILES
24 | < 1 | C#Cc1nc(=O)n(-c2ccccc2)c2nc(Nc3ccccc3OC)ncc12 [Example 4, 4-Ethynyl-7-[(2-methoxyphenyl)amino]-1-phenylpyrimido[4,5-d][1,3]diazin-2-one]
25 | < 1 | C#Cc1cc(=O)n(-c2ccccc2)c2nc(Nc3ccc(OCCN(C)C)cc3)ncc12 [Example 13, 2-({4-[2-(Dimethylamino)ethoxy]phenyl}amino)-5-ethynyl-8-phenylpyrido[2,3-d]pyrimidin-7-one]
26 | < 1 | C#Cc1cc(=O)n(-c2ccccc2)c2nc(Nc3ccc(N4CCOCC4)cc3OC)ncc12 [Example 35, 5-Ethynyl-2-((2-methoxy-4-morpholinophenyl)amino)-8-phenylpyrido[2,3-d]pyrimidin-7(8H)-one]
27 | > 10 | C#Cc1cc(=O)n(C)c2nc(Nc3ccccc3OC)ncc12 [Example 48, 5-Ethynyl-2-[(2-methoxyphenyl)amino]-8-methylpyrido[2,3-d]pyrimidin-7-one]
28 | > 10 | C#Cc1cc(=O)n(-c2cccc(NC(C)=O)c2)c2nc(Nc3ccccc3OC)ncc12 [Example 56, N-(3-(5-Ethynyl-2-((2-methoxyphenyl)amino)-7-oxopyrido[2,3-d]pyrimidin-8(7H)-yl)phenyl)acetamide]
29 | > 10 | C#Cc1cc(=O)n(-c2cccc(NS(C)(=O)=O)c2)c2nc(Nc3ccccc3OC)ncc12 [Example 57, N-(3-(5-Ethynyl-2-((2-methoxyphenyl)amino)-7-oxopyrido[2,3-d]pyrimidin-8(7H)-yl)phenyl)methanesulfonamide]
30 | > 10 | C#Cc1cc(=O)n(C2CCCC2)c2nc(Nc3ccccc3OC)ncc12 [Example 74, 8-Cyclopentyl-5-ethynyl-2-((2-methoxyphenyl)amino)pyrido[2,3-d]pyrimidin-7(8H)-one]
31 | 1 to 10 | C#Cc1c(-c2ccccc2)c(=O)n(C)c2nc(Nc3ccc(N(C)CCN(C)C)cc3OC)ncc12 [Example 121, 2-[(4-[[2-(dimethylamino)ethyl](methyl)amino]-2-methoxyphenyl)amino]-5-ethynyl-8-methyl-6-phenylpyrido[2,3-d]pyrimidin-7-one]
32 | < 1 | C#Cc1c(-c2ccccc2Cl)c(=O)n(C)c2nc(Nc3ccc(N(C)CCN(C)C)c(C)c3)ncc12 [Example 133, 6-(2-chlorophenyl)-2-[(4-{[2-(dimethylamino)ethyl](methyl)amino}-3-methylphenyl)amino]-5-ethynyl-8-methylpyrido[2,3-d]pyrimidin-7-one]
33 | 1 to 10 | C#Cc1c(-c2ccccc2OC)c(=O)n(C)c2nc(Nc3ccc(N(C)CCN(C)C)cc3)ncc12 [Example 138, 2-[(4-{[2-(dimethylamino)ethyl](methyl)amino}phenyl)amino]-5-ethynyl-6-(2-methoxyphenyl)-8-methylpyrido [2,3-d]pyrimidin-7-one]
34 | 1 to 10 | C#Cc1c(Cc2ccccc2)c(=O)n(C)c2nc(Nc3ccc(N(C)CCN(C)C)cc3OC)ncc12 [Example 140, 6-benzyl-2-[(4-[[2-(dimethylamino)ethyl](methyl)amino]-2-methoxyphenyl)amino]-5-ethynyl-8-methylpyrido[2,3-d]pyrimidin-7-one]
35 | > 10 | C#Cc1c(NC(C)=O)c(=O)n(-c2ccccc2)c2nc(Nc3ccccc3OC)ncc12 [Example 143, N-[5-ethynyl-2-[(2-methoxyphenyl)amino]-7-oxo-8-phenylpyrido[2,3-d]pyrimidin-6-yl]acetamide]
36 | > 10 | C#Cc1c(C(=O)N(C)C)c(=O)n(-c2ccccc2)c2nc(Nc3ccccc3OC)ncc12 [Example 146, 5-ethynyl-2-[(2-methoxyphenyl)amino]-N,N-dimethyl-7-oxo-8-phenylpyrido[2,3-d]pyrimidine-6-carboxamide]
37 | > 10 | C#Cc1c(N(C)C)c(=O)n(-c2ccccc2)c2nc(Nc3ccccc3OC)ncc12 [Example 147, 6-(dimethylamino)-5-ethynyl-2-[(2-methoxyphenyl)amino]-8-phenylpyrido[2,3-d]pyrimidin-7-one]
38 | > 10 | C=Cc1cc(=O)n(-c2ccc(OC)cc2OC)c2nc(Nc3ccccc3OC)ncc12 [Example 154, 8-(2,4-dimethoxyphenyl)-5-ethenyl-2-[(2-methoxyphenyl)amino]pyrido[2,3-d]pyrimidin-7-one]
